According to patent publication US20140308733A1, “METHOD FOR INDUCING GERMINATION OF SPORE FORMING BACTERIUM” (CALPIS CO., LTD., priority 2011, published 2014):

System: Bacillus subtilis C-3102 (FERM BP-1096)
Test: Germination induction by ferulic acid, vanillic acid or p-coumaric acid at 300 ppm, turbidity change (Example 3)
Type: cell-based
Conditions: for turbidity (630 nm): 37° C., 150 rpm
Protocol: In each 500 mL of distilled water heated to 70° C. was added 0.3 g of ferulic acid, vanillic acid, or p-coumaric acid. After dissolving with stirring using a stirring rod with a propeller, filtration sterilization (0.45 μm filter) was conducted to prepare each 600 ppm-solution.
Next, 500 μL aliquots of bacterial suspension of Bacillus subtilis C-3102 (FERM BP-1096) prepared by a similar method as in Example 1 were mixed with 500 μL of each of the ferulic acid, vanillic acid, and p-coumaric acid solutions, and the mixtures were adjusted to 300 ppm of ferulic acid, vanillic acid, or p-coumaric acid concentration. Defining the time point of mixing as the reaction initiation (0 min), and continuing shaking (150 rpm) at 37° C., the turbidity (630 nm) was measured at 10, 20, 30, 40, 50, 60, 90, 120, and 180 min after the reaction initiation.

[1] = 0 min after reaction initiation
[2] = 10 min after reaction initiation
[3] = 20 min after reaction initiation
[4] = 30 min after reaction initiation
[5] = 40 min after reaction initiation
[6] = 50 min after reaction initiation
[7] = 60 min after reaction initiation
[8] = 90 min after reaction initiation
[9] = 120 min after reaction initiation
[10] = 180 min after reaction initiation

SMILES | germination confirmed by turbidity decrease | turbidity (630 nm) [1] | turbidity (630 nm) [2] | turbidity (630 nm) [3] | turbidity (630 nm) [4] | turbidity (630 nm) [5] | turbidity (630 nm) [6] | turbidity (630 nm) [7] | turbidity (630 nm) [8] | turbidity (630 nm) [9] | turbidity (630 nm) [10]
COc1cc(/C=C/C(=O)O)ccc1O [Ferulic acid, ferulic acid] | decreased, thereby to confirm germination | 0.545 | 0.527 | 0.513 | 0.484 | 0.466 | 0.449 | 0.413 | 0.368 | 0.313 | 0.233
COc1cc(C(=O)O)ccc1O [Vanillic acid, vanillic acid] | decreased, thereby to confirm germination | 0.542 | 0.525 | 0.506 | 0.485 | 0.467 | 0.450 | 0.409 | 0.379 | 0.356 | 0.282
